{"source": "PubChem BioAssay AID651786", "about": "(The Scripps Research Institute Molecular Screening Center, 2012)", "note": "The source made the active and inactive calls.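 The calls were made as follows: active = IC50 at or below 10 µM; inactive = IC50 above 10 µM.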"}
{"molecular_target": "Nuclear receptor coactivator 1 (Homo sapiens) (UniProt Q15788)", "sequence (Q15788 whole entry, looked up, the tested form may be a part)": "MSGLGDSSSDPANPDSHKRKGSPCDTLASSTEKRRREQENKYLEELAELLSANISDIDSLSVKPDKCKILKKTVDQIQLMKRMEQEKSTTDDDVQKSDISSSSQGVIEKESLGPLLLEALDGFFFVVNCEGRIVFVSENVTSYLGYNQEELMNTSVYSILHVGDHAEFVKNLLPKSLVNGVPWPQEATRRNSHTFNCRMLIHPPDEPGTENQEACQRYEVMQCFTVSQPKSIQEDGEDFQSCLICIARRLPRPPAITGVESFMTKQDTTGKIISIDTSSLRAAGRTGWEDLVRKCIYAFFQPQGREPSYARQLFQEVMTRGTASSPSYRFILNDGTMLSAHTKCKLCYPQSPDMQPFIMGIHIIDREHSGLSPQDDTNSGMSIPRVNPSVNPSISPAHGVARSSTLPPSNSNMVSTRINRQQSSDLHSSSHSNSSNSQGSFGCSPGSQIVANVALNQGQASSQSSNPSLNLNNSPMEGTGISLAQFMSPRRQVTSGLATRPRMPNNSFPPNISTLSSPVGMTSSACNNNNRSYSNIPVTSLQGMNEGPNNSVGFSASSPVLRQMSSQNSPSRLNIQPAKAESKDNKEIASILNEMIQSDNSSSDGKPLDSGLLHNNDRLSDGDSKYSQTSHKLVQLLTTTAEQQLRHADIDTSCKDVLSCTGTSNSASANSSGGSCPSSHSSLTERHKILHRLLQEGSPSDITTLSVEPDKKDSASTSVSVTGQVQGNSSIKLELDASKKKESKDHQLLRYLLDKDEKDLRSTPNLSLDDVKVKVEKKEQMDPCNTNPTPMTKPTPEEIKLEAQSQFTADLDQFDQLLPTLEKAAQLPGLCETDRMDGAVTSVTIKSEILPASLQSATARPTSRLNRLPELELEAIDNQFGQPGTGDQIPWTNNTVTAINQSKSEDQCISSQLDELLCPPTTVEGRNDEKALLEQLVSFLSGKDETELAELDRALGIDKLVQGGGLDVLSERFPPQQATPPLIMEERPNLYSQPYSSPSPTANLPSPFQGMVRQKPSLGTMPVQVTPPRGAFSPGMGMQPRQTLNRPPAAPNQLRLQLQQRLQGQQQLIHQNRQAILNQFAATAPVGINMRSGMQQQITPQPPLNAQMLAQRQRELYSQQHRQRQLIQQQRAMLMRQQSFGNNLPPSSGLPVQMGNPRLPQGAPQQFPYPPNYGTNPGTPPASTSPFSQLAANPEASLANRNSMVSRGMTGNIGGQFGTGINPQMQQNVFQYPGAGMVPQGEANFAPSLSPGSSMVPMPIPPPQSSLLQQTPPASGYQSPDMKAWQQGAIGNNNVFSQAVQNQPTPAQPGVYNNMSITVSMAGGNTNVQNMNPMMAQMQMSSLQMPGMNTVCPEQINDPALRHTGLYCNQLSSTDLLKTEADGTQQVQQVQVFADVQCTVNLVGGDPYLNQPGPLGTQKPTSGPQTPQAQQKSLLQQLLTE", "test": "SRC1 (NCOA1) coactivator inhibitors, late-stage follow-up, selectivity assay for SRC3 inhibitor project, cell-based, HEK293, GAL4-SRC1 luciferase, powder samples (AID 651786)", "settings": "HEK293 GAL4-SRC1 luciferase reporter, luminescence"}
{"smiles": "CCCNC(=O)c1nnsc1S(=O)(=O)c1ccc(Cl)cc1", "IC50": "6.16 µM"}
{"smiles": "CN1C(=O)C2(C(C#N)=C(N)N(c3cc(Cl)cc(Cl)c3)C3=C2C(=O)CCC3)c2ccccc21", "note": "(stereo not drawn)", "IC50": "> 35.9 µM (inactive)"}
{"smiles": "CN1C(=O)C2(C(C#N)=C(N)N(c3cc(Cl)cc(Cl)c3)C3=C2C(=O)CC(C)(C)C3)c2ccccc21", "note": "(stereo not drawn)", "IC50": "> 35.9 µM (inactive)"}
{"smiles": "Cc1ccc(OCC(=O)c2cc(C)n(-c3ccccc3)c2C)c([N+](=O)[O-])n1", "IC50": "inactive"}
{"smiles": "OCCN1CCN(C(=S)c2ccc(-c3ccccc3)cc2)CC1", "IC50": "3.01 µM"}
{"smiles": "O=C(Nc1ccccc1Oc1ccccc1)c1cc([N+](=O)[O-])ccc1Cl", "IC50": "6.87 µM"}
{"smiles": "CC(C)(C)c1ccc(-c2noc(CCC(=O)Nc3cccnc3)n2)cc1", "IC50": "> 35.9 µM (inactive)"}
{"smiles": "O=C(COC(=O)c1ccc[nH]c1=O)Nc1ccc(N2CCCCC2)cc1", "IC50": "> 35.9 µM (inactive)"}
